{"source": "patent US20260167960A1", "about": "“METHODS AND COMPOSITIONS INCLUDING CONJUGATED DNAZYMES” (priority 2022, published 2026)", "system": "K. pneumoniae biofilm on silicon-coated latex Foley catheter", "assay": "Flow-cell catheter-associated biofilm, CFU assay", "format": "cell-based", "details": "2-hour perfusion; 750 or 1000 mcg/mL meropenem; FIG. 6A", "procedure": "Catheters were then connected to a flow-cell system containing fresh 10% TSB, and fresh media was perfused through the catheter by a pump at 10 ml/hour at 37° C. After 24 hours, treatment solution was perfused into the catheter at 10 ml/hour at 37° C. for 2 hours. Bacteria were scraped from the catheter into 1 ml PBS, and decimal serial dilutions were performed. All dilutions were plated by drop-plating technique on LB agar plates. LB agar plates were incubated at 37° C., and CFU were counted the next morning.\nTo test the effect of conjugated DNAzymes on established, catheter-associated biofilms, K. pneumoniae were incubated in catheters for 2 hours in static conditions and then for 24 hours with fresh media flow, after which they were subject to a 2-hour perfusion with 750 or 1000 mcg/mL meropenem, alone or in combination with tocopherol-conjugated or cholesterol-conjugated DNAzymes. After the incubation, the tubing was cut open and bacteria were scraped from the inside of the tubing, after which the CFU were determined by replating and observing colony formation. […] When CFU formation was tested in plates containing a much lower concentration (10 mcg/mL) of meropenem, the prior treatment with conjugated DNAzymes+meropenem nearly completely abolished colony formation (FIG. 6B), showing that antibiotic resistance was largely, if not entirely, abrogated in the disrupted biofilms.", "data": [{"smiles": "C[C@@H](O)[C@H]1C(=O)N2C(C(=O)O)=C(S[C@@H]3CN[C@H](C(=O)N(C)C)C3)[C@H](C)[C@H]12", "note": "[meropenem]", "values": [{"measurement": "disruption of established catheter-associated biofilms (CFU)", "value": "not antibiotic alone, significantly disrupted the established biofilms"}]}]}
